Assay results taken from patent publication US12325685B2, “RXR agonist salt form, polymorphs thereof, and uses thereof” (Io Therapeutics, Inc., priority 2022, dated 2025).
Converted amounts (≈) assume the structure as drawn.

Columns and labels:
[1] = Kinetic solubility at 37° C. in water and three biorelevant media; assay type: physicochemical
Protocol: Example 7: Kinetic Solubility. Kinetic solubility measurements were conducted on Compound 1 (a free acid) and Form A Tris salt of Compound 1 at 37° C. in water and three biorelevant media: synthetic gastric fluid; fed synthetic small intestinal fluid; and fasting synthetic small intestinal fluid.

[2] = Approximate (thermodynamic) solubility in solvents at room temperature; assay type: physicochemical; details: for solubility: organic solvent or mixture, thermodynamic from solid
[3] = Fasting Synthetic Small Intestinal Fluid, 37° C., 1 Hr
[4] = Fasting Synthetic Small Intestinal Fluid, 37° C., 4 Hrs
[5] = Fasting Synthetic Small Intestinal Fluid, 37° C., 24 Hrs
[6] = Fed Synthetic Small Intestinal Fluid, 37° C., 1 Hr
[7] = Fed Synthetic Small Intestinal Fluid, 37° C., 4 Hrs
[8] = Fed Synthetic Small Intestinal Fluid, 37° C., 24 Hrs
[9] = Synthetic Gastric Fluid, 37° C., 1 Hr
[10] = Synthetic Gastric Fluid, 37° C., 4 Hrs
[11] = Synthetic Gastric Fluid, 37° C., 24 Hrs

Structure (SMILES)	Observed kinetic aqueous solubility S [1, 3] [µg/mL]	pH [1, 3]	Observed kinetic aqueous solubility S [1, 4] [µg/mL]	pH [1, 4]	Observed kinetic aqueous solubility S [1, 5] [µg/mL]	pH [1, 5]	Observed kinetic aqueous solubility S [1, 6] [µg/mL]	pH [1, 6]	Observed kinetic aqueous solubility S [1, 7] [µg/mL]	pH [1, 7]	pH [1, 8]	pH [1, 9]	pH [1, 10]	pH [1, 11]	Observed kinetic aqueous solubility S ([1]; Water, 37° C., 1 Hr) [µg/mL]	pH ([1]; Water, 37° C., 1 Hr)	Observed kinetic aqueous solubility S ([1]; Water, 37° C., 4 Hrs) [µg/mL]	pH ([1]; Water, 37° C., 4 Hrs)	Observed kinetic aqueous solubility S ([1]; Water, 37° C., 24 Hrs) [µg/mL]	pH ([1]; Water, 37° C., 24 Hrs)	other results
CC(/C=C/[C@@H]1C[C@]1(C)c1ccc2c(c1)C(C)(C)CCC2(C)C)=C\C(=O)O [Compound 1, (2E,4E)-3-methyl-5-((1 S,2S)-2-methyl-2-(5,5,8,8-tetramethyl-5,6,7,8-tetrahydronaphthalen-2-yl)cyclopropyl)penta-2,4-dienoic acid]	50	6.48	60	6.88	40	7.50	100	5.09	100	5.17	5.21	1.67	1.78	1.92	30	7.78	30	7.83	10	8.33	Observed kinetic aqueous solubility S [1, 8]: 440 µg/mL; kinetic solubility in synthetic gastric fluid (in words) ([1]; synthetic gastric fluid): poor or undetectable; solubility kinetic at 4 h ([1]; synthetic gastric fluid, 37 °C, simulated gastric fluid, thermodynamic from solid, Synthetic Gastric Fluid, 37° C., 4 Hrs, ND = No Detectable signal by HPLC, read-out: Observed kinetic aqueous solubility S): 20 µg/mL (≈ 0.0567 mM); Approximate Solubility ([2]; 2-Butanol, listed as Compound 1 (Free Acid)): 108900 to 140000 µg/mL; Approximate Solubility ([2]; Isopropanol, listed as Compound 1 (Free Acid)): 71800 to 87800 µg/mL; Approximate Solubility ([2]; Water, listed as Compound 1 (Free Acid)): 30 µg/mL; solubility ([2]; ethanol): 74900 to 91500 µg/mL (≈ 212 to 260 mM); solubility ([2]; methanol): 57400 to 73100 µg/mL (≈ 163 to 207 mM)
CC(/C=C/[C@@H]1C[C@]1(C)c1ccc2c(c1)C(C)(C)CCC2(C)C)=C\C(=O)O [Tris Form A]	740	6.93	830	7.83	860	9.37	2540	5.91	410	6.84	7.33	1.76	1.96	2.12	290	2.68	170	3.21	140	9.3	solubility kinetic at 24 h ([1]; fed synthetic small intestinal fluid, 37 °C, fessif, thermodynamic from solid, Fed Synthetic Small Intestinal Fluid, 37° C., 24 Hrs, read-out: Observed kinetic aqueous solubility S): 340 µg/mL (≈ 0.964 mM); kinetic aqueous solubility compared to Compound 1 ([1]; relative to free acid, see Table 1): approximately an order of magnitude, or more; kinetic solubility in synthetic gastric fluid (in words) ([1]; synthetic gastric fluid): poor or undetectable; Approximate Solubility ([2]; 2-Butanol, listed as TRIS salt Form A): >15000 µg/mL; Approximate Solubility ([2]; Ethanol, listed as TRIS salt Form A): >40000 µg/mL; Approximate Solubility ([2]; Isopropanol, listed as TRIS salt Form A): 8830 to 10600 µg/mL; Approximate Solubility ([2]; Methanol, listed as TRIS salt Form A): >88000 µg/mL; Approximate Solubility ([2]; Water, listed as TRIS salt Form A): 290 µg/mL
